Values quoted from earlier work in patent US11337989B2, “Compositions and methods for inhibiting inflammation and diseases using an alginic acid-based antimicrobial compound” (Evofem, Inc., priority 2013, dated 2022).
Blank lines part the entries; values can stand above or below the compound they belong to.

Columns and labels:
HIV = settings: compared with D or racemic lactic acid; Purcell et al. 2012
[1] = at an acidic pH
[2] = system: bacteria associated with bacterial vaginosis; settings: in vaginal fluid; O'Hanlon et al. 2011
[3] = system: vaginal and cervical cells

Compound: C[C@H](O)C(=O)O [L form of lactic acid, L-(+)-lactic acid]
potency in inactivating HIV (HIV): more potent

water solubility [1]: not water soluble
Compound: C[C@H](Cn1cnc2c(N)ncnc21)OCP(=O)(O)O [Tenofovir, 1-(6-aminopurin-9-yl)propan-2-yloxymethylphosphonic acid]

Compound: CC(O)C(=O)O (stereo not shown) [lactic acid]
suppression of bacteria associated with bacterial vaginosis [2]: suppressed

Compound: nonoxynol-9 [N-9]
toxicity to vaginal and cervical cells [3]: toxic
